Assay results as given in patent publication US20020042072A1, “Method for monitoring the effect of cancer therapies” (priority 2000, published 2002).
Read-outs that look alike come from different tables or passages of the source.

Experiments:
[1] = system: telomerase activity in A431 xenograft; assay: Telomerase activity (TRAPeze ELISA) in A431 xenograft tumour material; assay type: in vivo, nu/nu mice
Experimental: (§1) Human tumour cells KB (CCL-17) and A43 1 (CRL-1555) were obtained from ATCC and cultured in DMEM medium supplemented with 10% fetal calf serum, 10 mM HEPES, 50 μmol/l beta-mercaptoethanol and a standard complement of antibiotics.
(§2) To establish subcutaneous tumours in nu/nu mice (5-6 week old female animals, supplied by Harlan, The Netherlands), cells were trypsinised, washed and suspended in phosphate-buffered physiological solution+10% fetal calf serum at 10^7 cells/ml. 100 μl cell suspension containing 10^6 cells were then injected subcutaneously into the right flank of the mice (one site per mouse). When tumours were well established and had reached diameters of more than 5-9 mm, mice were randomly distributed between treatment and the vehicle control group (7-10 days after cell injection). Test compounds (1 and 5 mg/ml) were dissolved and administered intragastically by gavage needle. Administration was once daily oral dosing in a volume of 10 ml/kg body weight. Tumour diameters were measured three times weekly with a caliper. Volumes (in mm^3) were calculated according to the formula: tumour volume=length*diameter^2*π/6.
(§3) For measuring telomerase activity, the Oncor®, TRAPeze™ Elisa Telomerase Detection Kit was used. Tumour material surgically removed from mice was cleaned and frozen at −70° C. […]

A431 xenograft = assay: Tumour growth of subcutaneous A431 xenograft; assay type: in vivo, nu/nu mice; settings: for % reduction of tumour growth: A431 xenograft; for tumor growth in vivo: oral administration, nu/nu mice xenografted with A43 1 or KB tumor cells
Experimental: as §1, §2

KB xenograft = assay: Tumour growth of subcutaneous KB xenograft; assay type: in vivo, nu/nu mice; settings: 50 mg/kg once daily oral
Experimental: as §1, §2

[2] = system: telomerase activity in KB xenograft; assay: Telomerase activity (TRAPeze ELISA) in KB xenograft tumour material; assay type: in vivo, nu/nu mice; settings: 50 mg/kg once daily oral
Experimental: as §1, §2, §3

NB-4 = settings: NB-4, differentiation-sensitive clones; cited from earlier work
NTERA-2 = settings: NTERA-2, differentiation-sensitive clones; cited from earlier work
MCF-7 = settings: cited from earlier work
MDA-MB23 1 = settings: cited from earlier work

CC1(N)CCN(c2ncc3ncnc(Nc4ccc(F)c(Cl)c4)c3n2)CC1 [Inhibitor 2, 4-((3-chloro-4-fluoro-phenyl)amino)-6-(4-amino-4-methyl-1-piperidinyl)-pyrimido(5,4d)pyrimidine]
% reduction of telomerase activity ([1]; 10 mg/kg once daily oral): 96% | % reduction of tumour growth (A431 xenograft; 10 mg/kg once daily oral): 90% | tumor growth in vivo (A431 xenograft): inhibited tumor growth in vivo

CN1CCC(Nc2ncc3ncnc(Nc4ccc(F)c(Cl)c4)c3n2)CC1 [Inhibitor 1, 4-((3-chloro-4-fluoro-phenyl)amino)-6-(1-methyl-4-piperidinyl-amino)-pyrimido(5,4d)pyrimidine]
% reduction of tumour growth (KB xenograft): 51% | % reduction of telomerase activity ([1]; 50 mg/kg once daily oral): 100% | % reduction of telomerase activity [2]: 6% | % reduction of tumour growth (A431 xenograft; 50 mg/kg once daily oral): 79% | tumor growth in vivo (A431 xenograft): inhibited tumor growth in vivo

CC1=C(/C=C/C(C)=C/C=C/C(C)=C/C(=O)O)C(C)(C)CCC1 [all-trans-retinoic acid]
telomerase activity (NB-4): decline in telomerase activity | telomerase activity (NTERA-2): decline in telomerase activity

CC(=O)NCCCCCCNC(C)=O [hexamethylene bisacetamide]
telomerase activity (NB-4): decline in telomerase activity | telomerase activity (NTERA-2): decline in telomerase activity

CC/C(=C(\c1ccccc1)c1ccc(OCCN(C)C)cc1)c1ccccc1 [tamoxifen]
telomerase activity (MCF-7; MCF-7, 10^−8M): repressive effect | telomerase activity (MCF-7; MCF-7, higher (10^−7 and 10^−6M) or lower (10^−9M) concentrations): no effect | telomerase activity (MDA-MB23 1; MDA-MB23 1, 10^−8M): repressive effect | telomerase activity (MDA-MB23 1; MDA-MB23 1, higher (10^−7 and 10^−6M) or lower (10^−9M) concentrations): no effect
